In patent publication US8822455B2, “Fused aminodihydrothiazine derivatives” (Eisai R&D Management Co., Ltd., priority 2011, dated 2014) one finds IC50 data, which are given here for seven molecules.

Molecules are shown by their SMILES. Where only a bound is given, the exact number is not on record here.

In the assay the test system is Aβ42. Nature of the assay: In vitro cellular assay (Aβ42): quantification of Aβ peptide in culture of neurons from rat fetus brain (ELISA). The format is cell-based. As to conditions: Primary cortical neuron, 72 h, rat primary cortical neurons (embryonic day 18 Wistar), 3 days after addition of compound, read-out: Cell IC50. The procedure:
In vitro Cellular Assay (Aβ42):
Quantification of AβPeptide in Culture of Neurons from Rat Fetus Brain
(1) Rat Primary Neuronal Culture
Primary neuronal cultures were prepared from the cerebral cortex of embryonic day 18 Wistar rats (Charles River, UK). Specifically, the embryos were aseptically removed from pregnant rats under ether anesthesia. The brain was isolated from the embryo and immersed in HBSS (Sigma Aldrich #H9269) containing 10 mM HEPES (Gibco #15630-056). The cerebral cortex was collected from the isolated brain under a stereoscopic microscope. The cerebral cortex fragments collected were enzymatically treated in an enzyme solution containing 0.05% trypsin-EDTA solution (GIBCO, #25300) at 37° C. for 20 minutes to disperse the cells. The cells were then washed twice and then gently resuspended in Neurobasal medium (Gibco #21103) supplemented with 2% B27 supplement (GIBCO #17504-044), 0.5 mM L-glutamine (GIBCO #25030), 1×N2 (GIBCO #17502-048), 100 ug/ml Pen/Strep (GIBCO 15140-122) and 5% heat inactivated FCS (PAA #A15-701). The cell dispersion was filtered through a 40-μm nylon mesh (BD Falcon #352340) to remove the remaining cell mass, and thus a neuronal cell suspension was obtained. The neuronal cell suspension was diluted with the medium above and then plated in a volume of 100 μL/well at an initial cell density of 3.25×10^5 cells/ml in poly-D-lysine coated 96-well culture plate (Greiner #655940). The plated cells were cultured in the culture plate at 37° C. in 5% CO2-95% air for 24 hrs. The total amount of the medium was replaced with ‘assay Neurobasal medium’ (as above excluding heat inactivated FCS), and then the cells were cultured for a further five days.
The drug was added to the culture plate on Day 6 of culture as follows. 8 point compound serial dilutions were generated in DMSO at a concentration of ×1000 that of the final assay concentration (FAC). Compound solutions were then prepared by adding 999 ul of ‘Assay Neurobasal media’ (as described in above section) to 1 ul of DMSO compound stock. The total amount of the medium was removed from each of the cell plate wells, and 200 μL/well of compound solution was added. The final DMSO concentration was 0.1%.
The cells were cultured for either 1 or 3 days after addition of the compound for ABx-40 and ABx-42 assays respectively. 150 μl of sample medium was collected and used as the ELISA sample.
Human/Rat β Amyloid (42) ELISA Kit Wako (#290-62601) and Human/Rat β Amyloid (40) ELISA Kit Wako (#294-62501) from Wako Pure Chemical Industries, Ltd. were used for Aβ ELISA Aβ ELISA was carried out according to the protocols recommended by the manufacturers, described in the documents accompanying the kits. The results were shown as percentage of the control groups and IC50 values for each compound were determined using four parameter logistic fit model using the XLFIT5 software package (IDBS).
On to `COc1cccc(-c2ccc(F)c([C@]34CO[C@H](C)[C@H]3CSC(N)=N4)c2)n1` [Example 24, (4aS,5R,7aS)-7a-(2-fluoro-5-(6-methoxypyridin-2-yl)phenyl)-5-methyl-4a,5,7,7a-tetrahydro-4H-furo[3,4-d][1,3]thiazin-2-amine], for which the IC50 was above 1000 nM.

With `C[C@H]1OC[C@]2(c3cc(-c4cccc(=O)[nH]4)ccc3F)N=C(N)SC[C@H]12` [Example 25, 6-(3-((4aS,5R,7aS)-2-amino-5-methyl-4a,5,7,7a-tetrahydro-4H-furo[3,4-d][1,3]thiazin-7a-yl)-4-fluorophenyl)pyridin-2(1H)-one], the IC50 came out at 342 nM.

Regarding `C[C@H]1OC[C@]2(c3cc(-c4cncc(OC(F)F)c4)ccc3F)N=C(N)SC[C@H]12` [Example 26], the half-inhibitory concentration (IC50) worked out at 64 nM.

On to `NC1=N[C@@]2(c3cc(-c4cncnc4)c(F)cc3F)CO[C@H](CF)[C@H]2CS1` [Example 27, (4aS,5S,7aS)-7a-(2,4-Difluoro-5-(pyrimidin-5-yl)phenyl)-5-(fluoromethyl)-4a,5,7,7a-tetrahydro-4H-furo[3,4-d][1,3]thiazin-2-amine], for which the half-maximal inhibitory concentration (IC50) was 59 nM.

In the case of `NC1=N[C@@]2(c3cc(-c4cccnc4F)c(F)cc3F)CO[C@H](CF)[C@H]2CS1` [Example 28], the IC50 turned out to be 46 nM.

Turning to `COc1cncc(-c2cc([C@]34CO[C@H](CF)[C@H]3CSC(N)=N4)c(F)cc2F)c1` [Example 29, (4aS,5S,7aS)-7a-(2,4-difluoro-5-(5-methoxypyridin-3-yl)phenyl)-5-(fluoromethyl)-4a,5,7,7a-tetrahydro-4H-furo[3,4-d][1,3]thiazin-2-amine], the IC50 was found to be 15 nM.

For the molecule `NC1=N[C@@]2(c3cc(-c4ccc(F)nc4)c(F)cc3F)CO[C@H](CF)[C@H]2CS1` [Example 30, (4aS,5S,7aS)-7a-(2,4-difluoro-5-(6-fluoropyridin-3-yl)phenyl)-5-(fluoromethyl)-4a,5,7,7a-tetrahydro-4H-furo[3,4-d][1,3]thiazin-2-amine], the IC50 was 223 nM.
